How the values were obtained:
α-TC1 clone 9 cells = assay type: cell-based; conditions: for Glucagon Secretion % Inhibition: veratridine-induced (30 μM for 1 hour), at a given concentration (not given)
Protocol: (§1) Voltage-dependent block (VDB) of […] was determined by whole-cell voltage-clamp recordings of sodium current using a QPatch 16× automated electrophysiological system in HEK 293 cells overexpressing Nav 1.3 and Nav 1.7 sodium channels, respectively. VDB of peak current was measured using an 8 s conditioning prepulse (to -55 mV for NaV1.3 and to −60 mV for […]) followed by a test pulse (0 mV, 20 ms). Currents are normalized to the peak current recorded in the absence of drug and expressed as percent inhibition. […] Glucagon secretion in the cells was induced by the treatment with veratridine at 30 μM for 1 hour in Krebs-Ringer buffer containing 0.1% BSA. Percent inhibition of glucagon secretion by Na channel blockers was calculated from the reduction of veratridine-induced glucagon secretion in the absence of drug.
Cells were seeded at 0.4×10^5/well in 96-well plates and allowed to recover for 1 day. The media was then changed to serum-free DMEM and incubated overnight. Cells were then treated with sodium-channel blockers in the presence of veratridine (15 μM) in Krebs-Ringer buffer containing 0.1% BSA and 3 mM glucose for 1 h. Supernatants were collected and stored at −80° C. until analysis. Glucagon levels were measured by an ELISA kit.

hNaV1.3 = biological target: T1, hNaV1.3 (Homo sapiens, UniProt Q9NY46); assay: Voltage-dependent block (VDB) of hNaV1.3, QPatch whole-cell voltage-clamp in HEK-293 cells; assay type: cell-based; conditions: 8 s prepulse to -55 mV; at a given concentration (not given)
T1 construct: (Vanderbilt University, Nashville, Tenn.)
Protocol: as §1
(Vanderbilt University, Nashville, Tenn.). The cells were continuously maintained in a humidified, 5% CO2 atmosphere at 37° C. in DMEM high glucose growth medium supplemented with 10% FBS, 2 mM L-glutamine, 100 U/mL penicillin, 100 μg/mL streptomycin, 1 mg/mL G418 and 3 μg/mL puromycin.
(§2) Whole-cell voltage-clamp recordings were used to measure the activity of test compounds against hNaV1.3 and hNaV1.7. Sodium currents were recorded at room temperature using a QPatch 16× automated electrophysiological system (Sophion Bioscience, Copenhagen, Denmark). Cells were washed with PBS and then incubated with Detachin for 2 minutes at room temperature. Cells were then resuspended in growth media, pelleted by centrifugation and resuspended in CHO-S-SFM II serum free media supplemented with 100 U/mL penicillin, 100 μg/mL streptomycin and 10 mM HEPES. The cells were allowed to recover for 30 min at room temperature with constant stirring and then loaded into the QPatch cell holder.
(§3) The cells were loaded into primed single hole (2 MΩ) large QPlates and the whole-cell configuration was established using the default protocol. Cells were allowed to stabilize for 10 min after establishment of the whole-cell configuration before current was measured. […] All currents are low-pass Bessel filtered at 5 kHz and digitized at 50 kHz.
(§4) Specific voltage-clamp protocols assessing voltage-dependent block (VDB, also termed state-dependent block) are used. VDB of peak current was measured following an 8 s conditioning prepulse (to -55 mV for NaV1.3 and to −60 mV for NaV1.7) followed by a test pulse to 0 mV (20 ms). An interpulse (−120 mV, 10 ms) was used to recover non-drug bound channels from fast inactivation. The prepulse potential was determined by the steady-state inactivation curves for NaV1.3 and NaV1.7. […] Multiple applications of drug were used to ensure complete solution exchange and the cells were allowed to stabilize in the drug containing solution for two minutes. Currents were normalized to the peak current recorded in the absence of drug and expressed as percent inhibition.

hNaV1.7 = hNaV1.7 (Homo sapiens, UniProt Q15858); assay: Voltage-dependent block (VDB) of hNaV1.7, QPatch whole-cell voltage-clamp in HEK-293 cells; assay type: cell-based; conditions: 8 s prepulse to −60 mV; at a given concentration (not given)
Protocol: as §1
The cells were continuously maintained in a humidified, 5% CO2 atmosphere at 37° C. in MEM growth medium supplemented with 10% FBS, 2 mM L-glutamine, 100 U/mL penicillin, 100 μg/mL streptomycin, 0.6 mg/mL G418 and 2 μg/mL blastocydin.
as §2, §3, §4

ZDF diabetic rats = assay: ZDF diabetic rats, animal model of type 2 diabetes; assay type: in vivo, rat
Protocol: All sections from fluorescent staining were viewed under fluorescent microscope and the stained areas were digitally photographed at a magnification of 20×. The images taken at different magnification were normalized using the standard ruler grade (S1 Finder Graticule, 68040, Electron Microscopy Science, Hatfield, Pa.). Analyses of islet areas and entire section areas were performed using ImageJ software (NIH, MD). Three sections from each of 6 animals per treatment group were analyzed. Data are presented as mean±SEM. *, p<0.05; **, p<0.01; ***, p<0.001 by One-way ANOVA.
Male ZDF Leprfa/Crl rats were received at 5 weeks of age from Charles River Laboratories Inc., (Wilmington, Mass.) and were acclimated until study initiation at 6 weeks of age. Drugs were given to the animals in Purina 5008 for 10 weeks at doses approximately 170 mg/kg/d of ranolazine, 0.6 mg/kg/d of compound A and 30 mg/kg/d of sitagliptin as positive control. Fasting (12-14 h fast) and non-fasting blood samples were obtained by tail-nick and blood glucose was measured using a Freestyle Lite glucose meter (Abbott Laboratories Inc., Abbott Park, Ill.). HbA1c levels were monitored every other week. Twenty four hour water consumption as surrogate marker for diabetes for each rat was measured at least once per week.

rat pancreatic islets [1] = assay: Veratridine-induced glucagon secretion in rat pancreatic islets; assay type: cell-based
rat pancreatic islets [2] = assay: Glucagon secretion in rat pancreatic islets under low glucose (3 mM), ELISA; assay type: cell-based
human pancreatic islets = assay: Veratridine-induced glucagon secretion in human pancreatic islets; assay type: cell-based; conditions: veratridine 30 μM

T1 sequence (Q9NY46 1-1951 isoform Q9NY46-4): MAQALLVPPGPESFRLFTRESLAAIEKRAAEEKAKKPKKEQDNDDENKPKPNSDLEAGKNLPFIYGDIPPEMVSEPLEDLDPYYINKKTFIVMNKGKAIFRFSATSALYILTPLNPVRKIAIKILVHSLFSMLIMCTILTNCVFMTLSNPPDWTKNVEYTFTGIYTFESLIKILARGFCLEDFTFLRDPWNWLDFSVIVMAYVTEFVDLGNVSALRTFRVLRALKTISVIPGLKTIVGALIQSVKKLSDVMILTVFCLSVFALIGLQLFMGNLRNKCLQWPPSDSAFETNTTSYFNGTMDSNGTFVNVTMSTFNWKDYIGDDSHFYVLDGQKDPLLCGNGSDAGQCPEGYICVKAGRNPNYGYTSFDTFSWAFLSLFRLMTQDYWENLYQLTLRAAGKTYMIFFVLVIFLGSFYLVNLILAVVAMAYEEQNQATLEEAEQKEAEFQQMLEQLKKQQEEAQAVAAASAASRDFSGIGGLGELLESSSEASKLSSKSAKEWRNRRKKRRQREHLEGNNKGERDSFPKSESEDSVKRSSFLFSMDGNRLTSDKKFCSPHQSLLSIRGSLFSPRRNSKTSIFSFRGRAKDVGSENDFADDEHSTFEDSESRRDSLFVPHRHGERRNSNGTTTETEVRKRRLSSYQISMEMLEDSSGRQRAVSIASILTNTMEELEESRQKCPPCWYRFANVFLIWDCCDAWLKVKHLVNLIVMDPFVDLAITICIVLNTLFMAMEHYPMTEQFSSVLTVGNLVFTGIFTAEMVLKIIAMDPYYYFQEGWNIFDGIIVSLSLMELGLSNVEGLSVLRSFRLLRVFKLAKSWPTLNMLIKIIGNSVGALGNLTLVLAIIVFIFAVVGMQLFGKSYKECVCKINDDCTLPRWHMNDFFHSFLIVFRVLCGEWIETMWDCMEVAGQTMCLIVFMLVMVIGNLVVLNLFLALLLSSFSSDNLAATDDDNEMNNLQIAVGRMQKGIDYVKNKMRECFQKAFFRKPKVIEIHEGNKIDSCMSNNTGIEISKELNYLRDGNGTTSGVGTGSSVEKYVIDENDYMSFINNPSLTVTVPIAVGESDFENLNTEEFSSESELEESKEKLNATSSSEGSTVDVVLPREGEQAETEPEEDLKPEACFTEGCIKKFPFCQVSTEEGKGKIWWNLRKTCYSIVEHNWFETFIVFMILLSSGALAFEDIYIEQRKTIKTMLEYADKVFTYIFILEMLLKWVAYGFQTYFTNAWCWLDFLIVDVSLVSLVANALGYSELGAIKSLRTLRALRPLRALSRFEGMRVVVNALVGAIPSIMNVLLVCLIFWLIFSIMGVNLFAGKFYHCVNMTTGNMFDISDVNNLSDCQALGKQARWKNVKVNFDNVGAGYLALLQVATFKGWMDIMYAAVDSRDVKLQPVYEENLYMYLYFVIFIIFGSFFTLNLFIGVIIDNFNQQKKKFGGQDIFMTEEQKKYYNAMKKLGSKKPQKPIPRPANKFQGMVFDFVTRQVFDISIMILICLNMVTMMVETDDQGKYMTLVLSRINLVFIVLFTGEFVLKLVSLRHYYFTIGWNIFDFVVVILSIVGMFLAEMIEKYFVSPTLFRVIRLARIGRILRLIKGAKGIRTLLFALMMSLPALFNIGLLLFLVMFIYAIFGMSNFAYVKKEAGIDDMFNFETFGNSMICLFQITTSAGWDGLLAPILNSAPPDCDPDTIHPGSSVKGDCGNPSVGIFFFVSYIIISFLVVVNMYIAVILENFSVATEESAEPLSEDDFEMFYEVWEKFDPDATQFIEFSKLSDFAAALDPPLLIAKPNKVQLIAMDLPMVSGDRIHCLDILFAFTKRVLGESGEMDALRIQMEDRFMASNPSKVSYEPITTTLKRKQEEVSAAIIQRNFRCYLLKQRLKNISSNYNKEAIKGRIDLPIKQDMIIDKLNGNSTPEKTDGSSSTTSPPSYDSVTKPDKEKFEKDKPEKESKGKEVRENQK
T1 sequence (Q07699 19-218 partner): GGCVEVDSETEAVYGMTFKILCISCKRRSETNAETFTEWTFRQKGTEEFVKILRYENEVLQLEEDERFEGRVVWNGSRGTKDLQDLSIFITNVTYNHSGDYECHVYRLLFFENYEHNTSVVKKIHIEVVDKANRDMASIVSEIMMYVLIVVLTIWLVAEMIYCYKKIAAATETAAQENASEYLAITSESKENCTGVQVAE
T1 sequence (O60939 30-215 partner): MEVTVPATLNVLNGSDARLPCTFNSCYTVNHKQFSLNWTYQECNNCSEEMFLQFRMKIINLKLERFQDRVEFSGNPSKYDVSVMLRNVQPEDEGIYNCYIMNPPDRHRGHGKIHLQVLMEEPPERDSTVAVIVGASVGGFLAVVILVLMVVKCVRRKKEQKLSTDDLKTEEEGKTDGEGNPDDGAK
Chain of hNaV1.7 (Q15858 1-1977 isoform Q15858-3): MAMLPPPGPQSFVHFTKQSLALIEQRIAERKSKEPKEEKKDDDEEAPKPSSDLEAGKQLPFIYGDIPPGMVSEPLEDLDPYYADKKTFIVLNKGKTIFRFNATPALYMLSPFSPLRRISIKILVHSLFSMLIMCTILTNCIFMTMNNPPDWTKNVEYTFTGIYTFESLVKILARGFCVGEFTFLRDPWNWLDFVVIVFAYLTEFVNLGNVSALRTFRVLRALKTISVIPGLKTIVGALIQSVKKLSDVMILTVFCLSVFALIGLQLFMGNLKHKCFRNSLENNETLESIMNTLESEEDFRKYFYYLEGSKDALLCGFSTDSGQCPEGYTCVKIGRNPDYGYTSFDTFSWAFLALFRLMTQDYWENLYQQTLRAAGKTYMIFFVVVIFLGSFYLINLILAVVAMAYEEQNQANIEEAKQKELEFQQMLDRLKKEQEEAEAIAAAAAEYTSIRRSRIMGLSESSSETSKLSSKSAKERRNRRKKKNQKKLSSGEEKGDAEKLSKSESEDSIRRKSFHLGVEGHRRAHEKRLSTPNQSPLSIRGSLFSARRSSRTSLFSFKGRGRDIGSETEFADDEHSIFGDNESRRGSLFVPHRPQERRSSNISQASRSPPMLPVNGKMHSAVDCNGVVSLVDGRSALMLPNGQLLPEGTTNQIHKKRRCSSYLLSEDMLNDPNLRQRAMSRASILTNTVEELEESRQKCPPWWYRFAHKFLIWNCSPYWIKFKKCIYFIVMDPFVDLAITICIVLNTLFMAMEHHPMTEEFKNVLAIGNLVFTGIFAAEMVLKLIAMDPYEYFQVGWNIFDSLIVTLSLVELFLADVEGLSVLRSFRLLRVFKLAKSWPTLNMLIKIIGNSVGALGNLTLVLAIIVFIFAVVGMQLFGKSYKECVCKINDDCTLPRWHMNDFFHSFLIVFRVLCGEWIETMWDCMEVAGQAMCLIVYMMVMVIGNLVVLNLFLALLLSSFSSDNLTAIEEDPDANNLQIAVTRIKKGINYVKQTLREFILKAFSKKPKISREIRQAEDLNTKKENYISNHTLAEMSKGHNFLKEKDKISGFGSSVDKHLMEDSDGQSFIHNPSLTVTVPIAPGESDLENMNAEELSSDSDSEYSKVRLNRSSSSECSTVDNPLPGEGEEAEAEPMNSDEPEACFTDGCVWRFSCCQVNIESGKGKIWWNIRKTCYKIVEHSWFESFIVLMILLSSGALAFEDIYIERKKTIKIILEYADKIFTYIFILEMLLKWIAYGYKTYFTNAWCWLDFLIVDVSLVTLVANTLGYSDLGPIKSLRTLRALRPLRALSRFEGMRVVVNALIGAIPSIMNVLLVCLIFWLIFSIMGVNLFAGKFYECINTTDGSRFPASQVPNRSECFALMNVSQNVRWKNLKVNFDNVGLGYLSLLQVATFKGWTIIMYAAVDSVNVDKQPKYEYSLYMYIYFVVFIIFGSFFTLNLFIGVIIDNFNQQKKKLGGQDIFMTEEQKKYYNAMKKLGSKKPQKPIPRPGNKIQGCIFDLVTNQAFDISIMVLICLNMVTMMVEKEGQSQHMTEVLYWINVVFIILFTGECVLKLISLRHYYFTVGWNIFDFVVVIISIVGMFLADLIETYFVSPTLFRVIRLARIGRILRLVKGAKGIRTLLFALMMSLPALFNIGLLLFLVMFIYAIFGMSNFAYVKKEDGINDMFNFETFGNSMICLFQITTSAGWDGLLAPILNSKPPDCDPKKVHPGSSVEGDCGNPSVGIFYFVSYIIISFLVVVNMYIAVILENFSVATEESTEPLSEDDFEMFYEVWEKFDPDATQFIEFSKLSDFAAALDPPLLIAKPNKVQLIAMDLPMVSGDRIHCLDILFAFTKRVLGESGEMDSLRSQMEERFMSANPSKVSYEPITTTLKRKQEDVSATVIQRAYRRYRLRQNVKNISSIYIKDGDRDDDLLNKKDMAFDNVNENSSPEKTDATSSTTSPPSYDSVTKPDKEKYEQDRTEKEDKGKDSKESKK
Chain of hNaV1.7 (Q07699 19-218 partner): as the sequence (Q07699 19-218 partner) above

| Structure (SMILES) | Glucagon Secretion % Inhibition (α-TC1 clone 9 cells) [%] | hNav1.3 VDB % Inhibition (hNaV1.3) [%] | hNav1.7 VDB % Inhibition (hNaV1.7) [%] | other results |
| --- | --- | --- | --- | --- |
| CS(=O)(=O)Nc1ccc(-c2ccc(Cl)c(C(F)(F)F)c2)c(Cl)c1 [G, N-(2,4′-dichloro-3′-(trifluoromethyl)biphenyl-4-yl)methanesulfonamide] | 3.5 | 4.01 | 6.04 |  |
| N[C@@H](CC(=O)N1CCn2c(nnc2C(F)(F)F)C1)Cc1cc(F)c(F)cc1F [sitagliptin] |  |  |  | insulin staining per islet (ZDF diabetic rats; 10 weeks treatment): 90.0±2.1%; islet area/pancreas area (ZDF diabetic rats; 10 weeks treatment): 0.98±0.3%; staining of glucagon per islet versus vehicle (ZDF diabetic rats; 10 weeks treatment): significantly less; water consumption (surrogate marker for diabetes) (ZDF diabetic rats; in Purina 5008 diet, during diabetes development): significantly prevented the increase; HbA1c levels versus vehicle group (ZDF diabetic rats; in Purina 5008 diet, weeks 4, 6 and 8): significantly lower; fasting plasma glucose levels versus vehicle (ZDF diabetic rats; in Purina 5008 diet, weeks 7 and 9): significantly lower |
| COCC(F)(F)c1nnc2ccc(-c3ccc(Oc4ccc(Cl)cc4)cc3)cn12 [F, 6-(4-(4-chlorophenoxy)phenyl)-3-(1,1-difluoro-2-methoxyethyl)-[1,2,4]triazolo[4,3-a]pyridine] | 4 | 2.32 | 14.72 |  |
| NC1=N[C@H](O)[C@H]2[C@H]3O[C@]4(O)O[C@@H]([C@@H](O)[C@@]2(N1)[C@@H]4O)[C@]3(O)CO [TTX, tetrodotoxin] |  |  |  | reduction of veratridine-induced increase of glucagon secretion (α-TC1 clone 9 cells): 100±6%; reduction of veratridine-induced glucagon secretion (in words) (rat pancreatic islets [1]): concentration-dependently reduced; maximal reduction of glucagon secretion as compared to the vehicle control (rat pancreatic islets [2]): 47±6% |
| O=C(NCc1ccc(C(F)(F)F)c(Cl)c1)c1ccc(S(=O)(=O)Nc2ncc(Cl)s2)cc1 [C, N-(3-chloro-4-(trifluoromethyl)benzyl)-4-(N-(5-chlorothiazol-2-yl)sulfamoyl)benzamide] | 41 | 92.16 | 7.81 |  |
| COc1ccc(C(=O)O[C@H]2CC[C@@]3(C)[C@@H]4CC[C@H]5[C@]6(O)C[C@H](O)[C@@]7(O)[C@@H](CN8C[C@@H](C)CC[C@H]8[C@@]7(C)O)[C@]6(O)C[C@@]53O[C@]24O)cc1OC [Veratridine] |  |  |  | increase in glucagon secretion (rat pancreatic islets [1]; veratridine at 30 μM): more than 3 fold; increase in glucagon secretion (human pancreatic islets): ~9 fold |
| FC(F)(F)Oc1ccc(-c2ccc3nnc(Oc4ccccc4)n3c2)cc1 [D, 3-phenoxy-6-(4-(trifluoromethoxy)phenyl)-[1,2,4]triazolo[4,3-a]pyridine] | 33.75 | 49.35 | 89.74 |  |
| CC(C)(C)OC(=O)N[C@H](Cc1ccccc1)C(=O)N[C@@H]1CCc2ccccc2N(CC(F)(F)F)C1 [E, tert-butyl (R)-1-oxo-3-phenyl-1-((R)-1-(2,2,2-trifluoroethyl)-2,3,4,5-tetrahydro-1H-benzo[b]azepin-3-ylamino)propan-2-ylcarbamate] | 34.53 | 23.18 | 23.73 |  |
